Target: T1, Macrophage-Derived Chemokine (MDC/CCL22) (Homo sapiens, UniProt O00626)
T1 sequence (O00626 25-93): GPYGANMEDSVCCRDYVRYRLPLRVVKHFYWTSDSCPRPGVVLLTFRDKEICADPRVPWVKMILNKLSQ
Experiment: TRIC-r calcium mobilization, Indo-1, EGFP-CCR4+Gqi5+ HEK cells
Type: cell-based

IC50: 15 µM
Structure (SMILES): COc1cc(/C=C/C(=O)NCCc2c[nH]c3ccc(O)cc23)ccc1O [N-Feruloylserotonin]

Reference: article PMC8455218, “A Cornflower Extract Containing N-Feruloylserotonin Reduces Inflammation in Human Skin by Neutralizing CCL17 and CCL22 and Inhibiting COX-2 and 5-LOX” (Mediators of Inflammation, 2021)
